Experiments:
[1] = biological target: epi-isozizaene synthase (EIZS) (Streptomyces coelicolor, UniProt Q9K499, F198A); test: X-ray crystal structure, […] Å; assay type: binding; details: complex with 3 Mg2+ and PPi; active site, alternative orientation
[2] = biological target: T1, epi-isozizaene synthase (EIZS) (Streptomyces coelicolor, UniProt Q9K499); test: X-ray crystal structure, […] Å; assay type: binding; details: complex with 3 Mg2+ and BTAC; active site
T1 sequence (Q9K499 1-361): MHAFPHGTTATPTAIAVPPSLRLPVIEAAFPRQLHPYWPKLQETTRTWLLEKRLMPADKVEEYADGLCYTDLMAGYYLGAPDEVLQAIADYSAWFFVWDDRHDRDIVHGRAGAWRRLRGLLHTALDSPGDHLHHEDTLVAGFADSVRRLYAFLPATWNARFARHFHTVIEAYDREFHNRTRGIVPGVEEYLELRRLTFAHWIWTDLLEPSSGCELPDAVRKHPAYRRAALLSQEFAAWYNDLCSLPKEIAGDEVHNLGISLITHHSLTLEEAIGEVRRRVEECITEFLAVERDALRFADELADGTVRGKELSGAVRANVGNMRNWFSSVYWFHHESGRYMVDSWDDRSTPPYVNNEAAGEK

epi-isozizaene synthase (EIZS) (Streptomyces coelicolor, UniProt Q9K499, F198A), sequence (Q9K499 whole entry F198A): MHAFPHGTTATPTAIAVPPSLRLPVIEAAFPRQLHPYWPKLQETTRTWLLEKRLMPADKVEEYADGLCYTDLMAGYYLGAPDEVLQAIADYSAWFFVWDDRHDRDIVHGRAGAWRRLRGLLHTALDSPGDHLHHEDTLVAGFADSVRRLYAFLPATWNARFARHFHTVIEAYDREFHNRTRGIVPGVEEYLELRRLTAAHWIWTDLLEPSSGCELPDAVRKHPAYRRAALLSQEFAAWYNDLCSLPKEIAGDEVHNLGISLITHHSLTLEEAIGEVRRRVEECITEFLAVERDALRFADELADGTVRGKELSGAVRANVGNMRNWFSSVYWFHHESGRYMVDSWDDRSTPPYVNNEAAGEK

SMILES	X-ray crystal structure, 1.64 Å [1]	X-ray crystal structure, 1.60 Å [2]
CC[N+](CC)(CC)Cc1ccccc1 [BTAC, benzyltriethylammonium cation]	the BTAC molecule occupies an alternative position	–
O=P(O)(O)OP(=O)(O)O [PPi, inorganic pyrophosphate]	–	The PPi anion also accepts hydrogen bonds from the side chains of R194, K247
